Test results published in US20140221372A1, “METHOD OF ADMINISTRATION AND TREATMENT” (GlaxoSmithKline Intellectual Property (NO 2.) Limited, priority 2013, published 2014).
Several values for one entry are separate records, joined by “and”; a condition that tells them apart may be missing. Equal values may be shown once.

Experiments:
Assay type in all cases: in vivo, human
[1] = system: hepatocellular cancer (HCC) subjects; assay: Pharmacogenetic analysis: association of genetic variants with TTP and OS in Asian HCC subjects receiving foretinib; settings: foretinib 30 mg QD; for Median TTP: (95% CI)
Description: Asian HCC subjects treated with the maximum tolerated dose (MTD) of 30 mg QD and provided informed consent and blood sample for PGx research (n=31 of 39 subjects treated) were selected for PGx analysis. Of the 31 subjects who provided consent, 28 subjects were evaluable for objective response rate (ORR) and 30 for time to progression (TTP) and overall survival (OS).
Venous blood was collected from each PGx consented subject into an ethylenediaminetetraacetic acid (EDTA) vacutainer for PGx analysis. DNA was extracted using the Qiagen Autopure automated DNA extraction by Covance (Indianapolis, Ind., USA) and was genotyped for 20 single nucleotide polymorphisms (SNPs) with potential functional consequence from 13 candidate genes. The list of the genetic variants including their unique identifier (rs ID) and allele frequency in Asian population is included in Table 1. Genotyping of the SNPs was done via Sanger sequencing, or using custom TaqMan® SNP genotyping assays (Applied Biosystems, Foster City, Calif., USA) internally at GlaxoSmithKline or via TaqMan® custom or Assay on Demand genotyping assays (Applied Biosystems, Foster City, Calif., USA) by Gen-Probe (Wythenshawe, Manchester, UK).
Association with ORR was evaluated using Fisher's Exact Test (FET). Association with TTP and OS was tested using time-to-event (progression) models, using the Score (log rank) test. Since one of the haplotypes CAT (a unique combination of ‘C’, ‘A’, and ‘T’ alleles of SNPs—rs2307424, rs2307418, and rs4073054, respectively) in gene NR1I3/CAR (nuclear receptor subfamily 1, group I, member 3/constitutive androstane receptor) was previously reported to be associated with worse progression-free survival in sunitinib-treated renal cell carcinoma subjects (Van der Veldt 2011), the 3 SNPs in NR1I3 (were analyzed separately and together as a haplotype for association with clinical endpoints (see Tables 1 and 2). Similarly, the 3 SNPs in ABCB1 (ATP-binding cassette, subfamily B, member 1) were also analyzed separately and together as a haplotype.
Because of the limited sample size of the study, genetic analyses were performed without adjustment for baseline demographics or potential covariates, and p-values were not adjusted for multiple testing.

[2] = system: CAF (Cytokine and Angiogenic Factor) levels; assay: Circulating pharmacodynamic markers: CAF time course, percent change from baseline (Searchlight platform)
Description: (§1) Blood was collected at baseline (Day 1) and post treatment with 30 mg/daily of foretinib on Days 8, 15, and 22. CAF (Cytokine and Angiogenic Factor) levels were determined. CAF levels were determined by using the Searchlight platform (Aushon Biosciences). Levels of circulating sMET and HGF were determined using Meso Scale Discovery Platform (Don Bottaro, National Cancer Institute [NCI]). The biomarker analysis population was predefined to include patients who met the following criteria: • Patient is in a 30 mg cohort. • Pharmacodynamic (PD)-sample data available at baseline and for at least 1 post-baseline timepoint, and • Patient received at least 75% of planned doses up to time of last PD sample. CAF percent changes from baseline were assessed for each CAF, at each time point, for available data in the biomarker population, using the Wilcoxon Signed Rank Test.

sMET = assay: Circulating sMET level, percent change from baseline (Meso Scale Discovery Platform); settings: Day 8, 30 mg/daily
Description: as §1

[3] = system: hepatocellular carcinoma patients; assay: Association between baseline (Day 1) CAF levels and TTP / OS in patients on foretinib
Description: Blood was collected at baseline (Day 1) and post treatment with 30 mg/daily of foretinib on Days 8, 15, and 22. CAF (Cytokine and Angiogenic Factor) levels were determined. CAF levels were determined by using the Searchlight platform (Aushon Biosciences). Levels of circulating sMET and HGF were determined using Meso Scale Discovery Platform (Don Bottaro, National Cancer Institute [NCI]).
The biomarker analysis population was predefined to include patients who met the following criteria: • Patient is in a 30 mg cohort. • Pharmacodynamic (PD)-sample data available at baseline and for at least 1 post-baseline timepoint, and • Patient received at least 75% of planned doses up to time of last PD sample.
Association between day 1 CAF levels and TTP was assessed using univariate and multivariate (covariate adjusted) proportional hazards regression analysis. CAF data were transformed (log2) where appropriate.
Association between day 1 CAF levels and OS was assessed using univariate and multivariate (covariate adjusted) proportional hazards regression analysis. CAF data were transformed (log2) where appropriate. For statistically significant CAF's in the OS statistical models, a combined model of the significant CAF's will be explored, in which an optimal predictive combination of the CAF's (including optimal cutoffs) will be investigated. The method employed to explore the CAF's will depend upon the number of significant CAF's, and will be described in the results section.

Structure (SMILES): COc1cc2c(Oc3ccc(NC(=O)C4(C(=O)Nc5ccc(F)cc5)CC4)cc3F)ccnc2cc1OCCCN1CCOCC1 [foretinib]
- Median TTP ([1]; ABCB1 rs1045642 TC or TT genotype): 8 months and 8.21 (2.17-NE) months
- median OS ([1]; NR1I3 CAT/CAT): 5.9 months
- Median TTP ([1]; NR1I3 CAT/− or −/− (1 or no copy, other haplotypes)): 6.21 (2.96-NE) months
- Median TTP ([1]; NR1I3 haplotype CAT/CAT (2 copies)): 1.92 (1.51-NE*) months
- median OS ([1]; NR1I3 other haplotypes): 8.5 months
- Clusterin Percent Change from baseline ([2]; Day 8, 30 mg/daily): 25%
- FASL Percent Change from baseline ([2]; Day 8, 30 mg/daily): 26%
- GCSF Percent Change from baseline ([2]; Day 8, 30 mg/daily): 46%
- IGFBP3 Percent Change from baseline ([2]; Day 8, 30 mg/daily): 19%
- IL6 Percent Change from baseline ([2]; Day 8, 30 mg/daily): 58%
- PLGF Percent Change from baseline ([2]; Day 8, 30 mg/daily): 105%
- TRAIL Percent Change from baseline ([2]; Day 8, 30 mg/daily): 25%
- TSP2 Percent Change from baseline ([2]; Day 8, 30 mg/daily): −14%
- VCAM1 Percent Change from baseline ([2]; Day 8, 30 mg/daily): 28%
- VEGF Percent Change from baseline ([2]; Day 8, 30 mg/daily): 61%
- ANG2 Percent Change from baseline ([2]; Day 15, 30 mg/daily): −24%
- FASL Percent Change from baseline ([2]; Day 15, 30 mg/daily): 20%
- IGFBP3 Percent Change from baseline ([2]; Day 15, 30 mg/daily): 13%
- IL6 Percent Change from baseline ([2]; Day 15, 30 mg/daily): 124%
- IL8 Percent Change from baseline ([2]; Day 15, 30 mg/daily): 20%
- PLGF Percent Change from baseline ([2]; Day 15, 30 mg/daily): 130%
- SCF Percent Change from baseline ([2]; Day 15, 30 mg/daily): −14%
- TRAIL Percent Change from baseline ([2]; Day 15, 30 mg/daily): 17%
- TSP2 Percent Change from baseline ([2]; Day 15, 30 mg/daily): −19%
- VCAM1 Percent Change from baseline ([2]; Day 15, 30 mg/daily): 43%
- VEGF Percent Change from baseline ([2]; Day 15, 30 mg/daily): 83%
- VEGFR2 Percent Change from baseline ([2]; Day 15, 30 mg/daily): −21%
- ANG2 Percent Change from baseline ([2]; Day 22, 30 mg/daily): −17%
- Clusterin Percent Change from baseline ([2]; Day 22, 30 mg/daily): 23%
- FASL Percent Change from baseline ([2]; Day 22, 30 mg/daily): 44%
- IGFBP3 Percent Change from baseline ([2]; Day 22, 30 mg/daily): 17%
- IL6 Percent Change from baseline ([2]; Day 22, 30 mg/daily): 111%
- PLGF Percent Change from baseline ([2]; Day 22, 30 mg/daily): 120%
- TRAIL Percent Change from baseline ([2]; Day 22, 30 mg/daily): 24%
- VCAM1 Percent Change from baseline ([2]; Day 22, 30 mg/daily): 64%
- VEGF Percent Change from baseline ([2]; Day 22, 30 mg/daily): 83%
- VEGFR2 Percent Change from baseline ([2]; Day 22, 30 mg/daily): −21%
- sMET Percent Change from baseline (sMET): 12%
- longer TTP, lower vs higher levels of IL6 ([3]; median split of baseline IL6 levels, 30 mg cohort): ~6.7 month
- deaths ([3]; patients in the highest quartile of baseline IL6): 10/10
- deaths ([3]; patients in the highest quartile of baseline IL8): 9/10
- deaths ([3]; patients in the lowest quartiles of baseline IL6 and IL8 (all patients censored)): 0/9
- TTP ([3]; patients with higher baseline levels of IL6 (median split), 30 mg cohort): 2.9 months
- TTP ([3]; patients with lower baseline levels of IL6 (median split), 30 mg cohort): 9.6 months
- median survival ([3]; patients with unfavorable levels of IL6 and IL8 (group 1 in FIG. 6)): 6 months
